{"source": "paper PMC8540821", "about": "“Estimation of the Difference in Colistin Plasma Levels in Critically Ill Patients with Favorable or Unfavorable Clinical Outcomes” (Pharmaceutics, 2021)", "key": {"P. aeruginosa": {"system": "P. aeruginosa", "experiment": "Susceptibility of clinical isolates (VITEK 2; MIC by broth dilution on microplate)", "type": "cell-based, Pseudomonas aeruginosa", "source_text": "(§1) The bacterial isolates were recovered in MacConkey agar (Oxoid-Thermo Scientific®, Hampshire, UK) and sent to the Bacterial Molecular Genetics Laboratory in AMIES transport media (COPAN). […] The MICs of meropenem, amikacin, and colistin were established by the broth dilution method on a microplate. E. coli ATCC® 25922^TM and P. aeruginosa ATCC® 27853^TM strains was used as a susceptibility control (American Type Culture Collection). Finally, the carbapenemase genes blaIMP, blaOXA-48, blaVIM, blaGES, blaKPC, and blaNDM were assessed by multiplex PCR [45]."}, "C. freundii": {"system": "C. freundii", "experiment": "Susceptibility of clinical isolates (VITEK 2; MIC by broth dilution on microplate)", "type": "cell-based", "settings": "n = 1, unfavorable outcome", "source_text": "as §1"}, "clinical": {"experiment": "clinical", "settings": "human, in vivo, plasma Cmin, fourth day of treatment, HPLC-UV, median (IQR), read-out: Colistin levels, Median, IQR", "description": "The doses were prescribed by the treating physician based on the institution’s drug-therapeutic guidelines (load of 1 mg/kg and maintenance of 3 mg/kg per day, divided into three doses). Measurement of the colistin concentration in plasma was performed on the fourth day of treatment, when it was assumed that the colistin concentrations would have reached a steady state. Colistin plasma concentrations (Cmin) were measured just before CMS administration. Cmin was chosen because it is more convenient from a practical point of view. Clinical outcomes were classified as (a) favorable (absence of fever (T < 38 °C); leukocytosis <12,000; not requiring vasopressors; in infections in which control cultures could be obtained, these cultures must be sterile within 7 days of treatment and without changes in the initial antimicrobial regimen within of the first 7 days of treatment. In addition, mortality at 30 days was measured as a secondary outcome; or (b) unfavorable (in the case of fever > 38 °C; leukocytosis > 12,000; requirement for a vasopressor or the presence of positive control cultures for the initial microorganism). The clinical outcomes were determined by consensus of at least two physicians on the study team. If all the criteria were met, the patient was assigned as having a favorable outcome; if one criterion was not met, the outcome was considered not favorable. […]"}, "E. coli": {"system": "E. coli", "experiment": "Susceptibility of clinical isolates (VITEK 2; MIC by broth dilution on microplate)", "type": "cell-based, Escherichia coli", "settings": "n = 1, favorable outcome", "source_text": "as §1"}, "E. cloacae": {"system": "E. cloacae", "experiment": "Susceptibility of clinical isolates (VITEK 2; MIC by broth dilution on microplate)", "type": "cell-based, Enterobacter cloacae", "settings": "n = 1, favorable outcome", "source_text": "as §1"}, "[1]": {"settings": "cited from earlier work", "source_text": "Colistin has been clinically available since the 1950s, but it soon fell into disuse, mainly due to its nephrotoxic potential. Alongside its nephrotoxicity, which ranges between 0 and 58% in different studies, some evidence has found the incidence of peripheral neuropathy may be up to 50% with its use, as the main manifestation of neurotoxicity. The lack of other available options has increased the use of colistin in MDR infections, even with its safety profile. The pharmacokinetics of colistin are complex. Colistin is available as a sulfate and as sodium colis ..."}, "P. putida": {"system": "P. putida", "experiment": "Susceptibility of clinical isolates (VITEK 2; MIC by broth dilution on microplate)", "type": "cell-based, Pseudomonas putida", "source_text": "as §1"}, "[2]": {"experiment": "Acute kidney injury / renal failure (serum creatinine increase above 0.3 mg/dl in 48 h) by colistin level", "type": "in vivo, human", "settings": "high colistin levels n = 2", "description": "Regarding the incidence of renal failure, defined as an increase in serum creatinine above 0.3 mg/dl in 48 h, this occurred in 20.7% of patients with low colistin levels, in 50% of patients with normal colistin levels, and in 50% of patients with high colistin levels (Table 5)."}, "A. baumannii": {"system": "A. baumannii", "experiment": "Susceptibility of clinical isolates (VITEK 2; MIC by broth dilution on microplate)", "type": "cell-based, Acinetobacter baumannii", "settings": "n = 1, favorable outcome", "source_text": "as §1"}, "K. pneumoniae": {"system": "K. pneumoniae", "experiment": "Susceptibility of clinical isolates (VITEK 2; MIC by broth dilution on microplate)", "type": "cell-based, Klebsiella pneumoniae", "source_text": "as §1"}, "[3]": {"system": "multiresistant Gram-negative carbapenemase-producing bacteria", "experiment": "Clinical outcome at day 7 and 30-day mortality in patients treated with CMS", "type": "in vivo, human", "description": "This prospective observational study was conducted from September 2017 and June 2020 at a university clinic in the Hospitalization and Critical Care services. The participation of patients in the study was according to the proposed inclusion criteria. Patients over 18 years old, hospitalized for infections caused by multiresistant Gram-negative carbapenemase-producing bacteria, diagnosed in hospital at the clinic of the University of La Sabana, who had been treated with CMS for at least 7 days at the institution, were included. […] Detailed demographic (age, sex, weight), clinical (site of infection, severity of disease, comorbidities (Charlson comorbidity index), CMS loading dose, CMS maintenance dose, duration of treatment, days of stay in the hospital, mortality, carbapenemase class, concomitant antibiotic therapy), laboratory (hemoglobin, red blood cell, neutrophil and platelet counts, serum creatinine and glomerular filtration rate (GFR)), and microbiological (bacterial isolation and characterization) data from each patient were recorded.\nThe doses were prescribed by the treating physician based on the institution’s drug-therapeutic guidelines (load of 1 mg/kg and maintenance of 3 mg/kg per day, divided into three doses). Measurement of the colistin concentration in plasma was performed on the fourth day of treatment, when it was assumed that the colistin concentrations would have reached a steady state. Colistin plasma concentrations (Cmin) were measured just before CMS administration. Cmin was chosen because it is more convenient from a practical point of view. Clinical outcomes were classified as (a) favorable (absence of fever (T < 38 °C); leukocytosis <12,000; not requiring vasopressors; in infections in which control cultures could be obtained, these cultures must be sterile within 7 days of treatment and without changes in the initial antimicrobial regimen within of the first 7 days of treatment. In addition, mortality at 30 days was measured as a secondary outcome; or (b) unfavorable (in the case of fever > 38 °C; leukocytosis > 12,000; requirement for a vasopressor or the presence of positive control cultures for the initial microorganism). The clinical outcomes were determined by consensus of at least two physicians on the study team. If all the criteria were met, the patient was assigned as having a favorable outcome; if one criterion was not met, the outcome was considered not favorable."}, "[4]": {"settings": "isolates from patients with favorable outcome n = 10"}, "[5]": {"settings": "isolates from patients with unfavorable outcome n = 14"}}, "note": "Like-named read-outs stand apart in the source and are kept apart here. Where a SMILES comes first, the peptide text is derived from it. Bridges are numbered along the chain shown (N, C = ends). [ ]: non-standard residue; d: D form. The star is where a group is joined. X1 = CC[C@H](C)CCCCC(=O)*; Dab = NCC[C@H](N)C(=O)O"}
{"compound": "CC[C@H](C)CCCCC(=O)N[C@@H](CCN)C(=O)N[C@H](C(=O)N[C@@H](CCN)C(=O)N[C@H]1CCNC(=O)[C@H]([C@@H](C)O)NC(=O)[C@H](CCN)NC(=O)[C@H](CCN)NC(=O)[C@H](CC(C)C)NC(=O)[C@@H](CC(C)C)NC(=O)[C@H](CCN)NC1=O)[C@@H](C)O", "note": "[colistin] (X1-[Dab]T[Dab][Dab][Dab][dL]L[Dab][Dab]T; lactam 4-C)", "values": [{"measurement": "isolates I (intermediate), n (%)", "setting": "P. aeruginosa; [4]", "result": "4 (40) n (%)"}, {"measurement": "isolates R (resistant), n (%)", "setting": "P. aeruginosa; [4]", "result": "4 (40) n (%)"}, {"measurement": "isolates S (susceptible), n (%)", "setting": "P. aeruginosa; [4]", "result": "2 (20) n (%)"}, {"measurement": "isolates I (intermediate), n (%)", "setting": "P. aeruginosa; [5]", "result": "6 (42.8) n (%)"}, {"measurement": "isolates R (resistant), n (%)", "setting": "P. aeruginosa; [5]", "result": "7 (50) n (%)"}, {"measurement": "isolates S (susceptible), n (%)", "setting": "P. aeruginosa; [5]", "result": "1 (7.14) n (%)"}, {"measurement": "isolates I (intermediate), n (%)", "setting": "C. freundii", "result": "1 (100) n (%)"}, {"measurement": "isolates R (resistant), n (%)", "setting": "C. freundii", "result": "0 (0) n (%)"}, {"measurement": "isolates S (susceptible), n (%)", "setting": "C. freundii", "result": "0 (0) n (%)"}, {"measurement": "level at 96 h", "setting": "clinical; favorable clinical outcome n = 34, p = 0.167 vs unfavorable", "result": 160, "unit": "ng/mL"}, {"measurement": "level at 96 h", "setting": "clinical; unfavorable clinical outcome n = 23", "result": 540, "unit": "ng/mL"}, {"measurement": "isolates I (intermediate), n (%)", "setting": "E. coli", "result": "1 (100) n (%)"}, {"measurement": "isolates R (resistant), n (%)", "setting": "E. coli", "result": "0 (0) n (%)"}, {"measurement": "isolates S (susceptible), n (%)", "setting": "E. coli", "result": "0 (0) n (%)"}, {"measurement": "isolates I (intermediate), n (%)", "setting": "E. cloacae", "result": "0 (0) n (%)"}, {"measurement": "isolates R (resistant), n (%)", "setting": "E. cloacae", "result": "1 (100) n (%)"}, {"measurement": "isolates S (susceptible), n (%)", "setting": "E. cloacae", "result": "0 (0) n (%)"}, {"measurement": "calculated volume of distribution", "setting": "[1]", "result": 0.34, "unit": "L/kg"}, {"measurement": "half-life", "setting": "[1]", "result": 4.18, "unit": "h"}, {"measurement": "isolates I (intermediate), n (%)", "setting": "P. putida; favorable outcome n = 1", "result": "1 (100) n (%)"}, {"measurement": "isolates R (resistant), n (%)", "setting": "P. putida; favorable outcome n = 1", "result": "0 (0) n (%)"}, {"measurement": "isolates S (susceptible), n (%)", "setting": "P. putida; favorable outcome n = 1", "result": "0 (0) n (%)"}, {"measurement": "isolates I (intermediate), n (%)", "setting": "P. putida; unfavorable outcome n = 1", "result": "0 (0) n (%)"}, {"measurement": "isolates R (resistant), n (%)", "setting": "P. putida; unfavorable outcome n = 1", "result": "0 (0) n (%)"}, {"measurement": "isolates S (susceptible), n (%)", "setting": "P. putida; unfavorable outcome n = 1", "result": "1 (100) n (%)"}, {"measurement": "Acute kidney injury, n, %", "setting": "[2]", "result": "1 (50%) n, %"}, {"measurement": "isolates I (intermediate), n (%)", "setting": "A. baumannii", "result": "1 (100) n (%)"}, {"measurement": "isolates R (resistant), n (%)", "setting": "A. baumannii", "result": "0 (0) n (%)"}, {"measurement": "isolates S (susceptible), n (%)", "setting": "A. baumannii", "result": "0 (0) n (%)"}, {"measurement": "isolates I (intermediate), n (%)", "setting": "K. pneumoniae; favorable outcome n = 3", "result": "1 (33.3) n (%)"}, {"measurement": "isolates R (resistant), n (%)", "setting": "K. pneumoniae; favorable outcome n = 3", "result": "2 (66.7) n (%)"}, {"measurement": "isolates S (susceptible), n (%)", "setting": "K. pneumoniae; favorable outcome n = 3", "result": "0 (0) n (%)"}, {"measurement": "isolates I (intermediate), n (%)", "setting": "K. pneumoniae; unfavorable outcome n = 2", "result": "0 (0) n (%)"}, {"measurement": "isolates R (resistant), n (%)", "setting": "K. pneumoniae; unfavorable outcome n = 2", "result": "0 (0) n (%)"}, {"measurement": "isolates S (susceptible), n (%)", "setting": "K. pneumoniae; unfavorable outcome n = 2", "result": "2 (100) n (%)"}, {"measurement": "30 days mortality, n, %", "setting": "[3]; high colistin levels n = 2 (>4 µg/mL)", "result": "0 (0%) n, %"}, {"measurement": "30 days mortality, n, %", "setting": "[3]; normal colistin levels n = 2 (2 to 4 µg/mL)", "result": "0 (0%) n, %"}, {"measurement": "Favorable clinical outcomes", "setting": "[3]; patients with colistin levels within the normal range", "result": 50, "unit": "%"}, {"measurement": "Favorable clinical outcomes", "setting": "[3]; patients with levels above the limit of normality", "result": 50, "unit": "%"}, {"measurement": "Favorable clinical outcomes", "setting": "[3]; patients with low colistin levels", "result": 60, "unit": "%"}]}
